Experimental data: ChEMBL document CHEMBL1909046, “DrugMatrix in vitro pharmacology data”
pIC50, pKi: −log10 of the molar value.

Assays:
[1] = target: T1, Alpha-1A adrenergic receptor (Rattus norvegicus, UniProt P43140); assay: DRUGMATRIX: Alpha-1A adrenergic receptor radioligand binding (ligand: prazosin); format: cell membranes, Wistar, Submaxillary gland, Membrane; conditions: Not Active = under 50% inhibition at 10 µM; for pIC50: read-out: IC50; for pKi: read-out: Ki
T1 sequence (P43140 whole entry): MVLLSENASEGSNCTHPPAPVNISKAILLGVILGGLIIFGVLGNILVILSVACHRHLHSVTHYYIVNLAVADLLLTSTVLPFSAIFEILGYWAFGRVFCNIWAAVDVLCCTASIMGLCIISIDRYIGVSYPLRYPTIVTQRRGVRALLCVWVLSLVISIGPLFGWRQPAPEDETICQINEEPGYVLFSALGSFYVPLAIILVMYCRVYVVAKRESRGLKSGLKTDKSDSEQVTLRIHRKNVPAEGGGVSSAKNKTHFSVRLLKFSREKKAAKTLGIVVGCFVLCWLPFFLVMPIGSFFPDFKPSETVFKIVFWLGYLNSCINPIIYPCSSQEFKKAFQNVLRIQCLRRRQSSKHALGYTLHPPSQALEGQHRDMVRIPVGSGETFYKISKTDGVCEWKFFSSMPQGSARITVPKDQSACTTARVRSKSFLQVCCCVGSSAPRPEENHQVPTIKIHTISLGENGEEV

[2] = target: C-C chemokine receptor type 5 (Homo sapiens, UniProt P51681); format: cell membranes, Membrane; conditions: hek293; further: in other assays of this panel Not Active means under 50% inhibition at 10 µM
C-C chemokine receptor type 5, sequence (P51681 whole entry): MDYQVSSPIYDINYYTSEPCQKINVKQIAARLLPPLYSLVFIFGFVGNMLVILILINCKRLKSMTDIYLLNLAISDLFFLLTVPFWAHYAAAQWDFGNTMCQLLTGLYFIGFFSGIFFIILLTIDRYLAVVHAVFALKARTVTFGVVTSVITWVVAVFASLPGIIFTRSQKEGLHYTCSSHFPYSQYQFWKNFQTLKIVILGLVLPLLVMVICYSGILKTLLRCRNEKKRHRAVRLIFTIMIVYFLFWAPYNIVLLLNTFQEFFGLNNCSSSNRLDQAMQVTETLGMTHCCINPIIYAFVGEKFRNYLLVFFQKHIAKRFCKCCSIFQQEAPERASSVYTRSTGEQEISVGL

[3] = target: T2, Neuropeptide Y receptor type 2 (Homo sapiens, UniProt P49146); format: cell membranes, Membrane; conditions: kan-ts; further: in other assays of this panel Not Active means under 50% inhibition at 10 µM
T2 sequence (P49146 whole entry): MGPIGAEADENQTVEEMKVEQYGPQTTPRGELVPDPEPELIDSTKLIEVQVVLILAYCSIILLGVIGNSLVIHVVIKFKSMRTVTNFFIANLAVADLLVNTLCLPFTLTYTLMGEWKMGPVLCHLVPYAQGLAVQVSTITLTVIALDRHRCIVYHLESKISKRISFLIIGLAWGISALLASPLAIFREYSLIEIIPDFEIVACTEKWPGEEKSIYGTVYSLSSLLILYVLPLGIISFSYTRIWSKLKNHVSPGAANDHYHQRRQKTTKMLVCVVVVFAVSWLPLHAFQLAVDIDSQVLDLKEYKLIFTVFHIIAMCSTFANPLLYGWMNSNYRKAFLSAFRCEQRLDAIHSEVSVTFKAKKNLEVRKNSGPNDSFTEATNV

[4] = target: C-C chemokine receptor type 2 (Homo sapiens, UniProt P41597); format: cell membranes, Membrane; conditions: cho-k1; further: in other assays of this panel Not Active means under 50% inhibition at 10 µM
C-C chemokine receptor type 2, sequence (P41597 whole entry): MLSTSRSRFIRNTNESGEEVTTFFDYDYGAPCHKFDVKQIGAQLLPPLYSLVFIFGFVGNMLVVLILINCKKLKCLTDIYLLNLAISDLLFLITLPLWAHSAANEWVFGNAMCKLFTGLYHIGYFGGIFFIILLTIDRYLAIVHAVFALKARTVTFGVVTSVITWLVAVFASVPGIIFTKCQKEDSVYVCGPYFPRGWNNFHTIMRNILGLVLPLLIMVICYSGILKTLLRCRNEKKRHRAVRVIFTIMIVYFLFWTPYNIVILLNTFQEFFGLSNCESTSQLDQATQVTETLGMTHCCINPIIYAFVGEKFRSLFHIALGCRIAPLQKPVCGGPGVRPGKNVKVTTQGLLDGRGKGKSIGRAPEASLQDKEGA

[5] = target: Aldo-keto reductase family 1 member B1 (Rattus norvegicus, UniProt P07943); assay: biochemical; format: tissue-based, Lens of camera-type eye; conditions: for pIC50: read-out: IC50;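 on all read-outs here: inhibition of aldose reductase enzyme activity, measured with DL-glyceraldehyde as the substrate; in other assays of this panel Not Active means under 50% inhibition at 10 µM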
[6] = target: 5-hydroxytryptamine receptor 6 (Homo sapiens, UniProt P50406); format: cell membranes, HeLa, Membrane; conditions: for IC50 / Ki: hela; for pIC50: read-out: IC50; for pKi: read-out: Ki
5-hydroxytryptamine receptor 6, sequence (P50406 whole entry): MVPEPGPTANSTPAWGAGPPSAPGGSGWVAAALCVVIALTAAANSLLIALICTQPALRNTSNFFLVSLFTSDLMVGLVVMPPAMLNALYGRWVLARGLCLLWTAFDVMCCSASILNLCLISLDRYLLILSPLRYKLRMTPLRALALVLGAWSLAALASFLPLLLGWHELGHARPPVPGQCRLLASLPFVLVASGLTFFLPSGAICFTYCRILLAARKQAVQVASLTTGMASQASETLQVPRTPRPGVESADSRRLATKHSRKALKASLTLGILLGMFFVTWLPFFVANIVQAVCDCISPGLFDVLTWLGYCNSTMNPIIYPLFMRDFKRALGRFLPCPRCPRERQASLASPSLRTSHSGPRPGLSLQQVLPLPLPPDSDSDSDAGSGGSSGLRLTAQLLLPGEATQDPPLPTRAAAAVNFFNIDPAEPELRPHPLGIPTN

[7] = target: T3, Caspase-1 (Homo sapiens, UniProt P29466); design: species or system Escherichia coli
T3 sequence (P29466 whole entry): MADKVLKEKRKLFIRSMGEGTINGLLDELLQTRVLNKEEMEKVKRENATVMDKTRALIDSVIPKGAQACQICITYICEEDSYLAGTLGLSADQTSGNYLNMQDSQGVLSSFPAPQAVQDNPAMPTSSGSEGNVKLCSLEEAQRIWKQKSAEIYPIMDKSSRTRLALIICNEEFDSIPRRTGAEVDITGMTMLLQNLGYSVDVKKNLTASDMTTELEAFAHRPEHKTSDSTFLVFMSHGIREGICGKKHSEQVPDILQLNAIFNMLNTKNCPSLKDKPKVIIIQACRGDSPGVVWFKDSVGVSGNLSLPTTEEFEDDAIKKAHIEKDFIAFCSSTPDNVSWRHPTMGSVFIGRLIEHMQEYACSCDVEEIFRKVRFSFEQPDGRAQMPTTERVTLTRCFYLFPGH

CC(=N)S [THIOACETAMIDE]
Not Active: IC50 [1] | IC50 [2] | IC50 [3] | IC50 [4] | IC50 [5] | IC50 [6] | IC50 [7]

O=C1C[C@@H]2OCC=C3CN4CC[C@]56c7ccccc7N1[C@H]5[C@H]2[C@H]3C[C@H]46 [STRYCHNINE]
Not Active: IC50 [1] | IC50 [2] | IC50 [3] | IC50 [4] | IC50 [5] | IC50 [6] | IC50 [7]

Nc1ccc(S(=O)(=O)NC(=O)c2ccccc2)cc1 [SULFABENZAMIDE]
Not Active: IC50 [1] | IC50 [2] | IC50 [3] | IC50 [4] | IC50 [5] | IC50 [6] | IC50 [7]

CC(=O)OCC(COC(C)=O)OC(C)=O [TRIACETIN]
Not Active: IC50 [1] | IC50 [2] | IC50 [3] | IC50 [4] | IC50 [5] | IC50 [6] | IC50 [7]

CCCCC(=O)N(Cc1ccc(-c2ccccc2-c2nnn[nH]2)cc1)[C@H](C(=O)O)C(C)C
Not Active: IC50 [1] | IC50 [2] | IC50 [3] | IC50 [5] | IC50 [6] | IC50 [7]

OCCOCCN1CCN(C2=Nc3ccccc3Sc3ccccc32)CC1 [QUETIAPINE]
Not Active: IC50 [2] | IC50 [3] | IC50 [4] | IC50 [5] | IC50 [6] | IC50 [7]

CC1CCC(NC(=O)N(CCCl)N=O)CC1 (stereo unspecified) [SEMUSTINE]
Not Active: IC50 [1] | IC50 [2] | IC50 [3] | IC50 [4] | IC50 [5] | IC50 [6] | IC50 [7]

Oc1ccc2c3c1O[C@H]1[C@@H](O)CC[C@@]4(O)[C@@H](C2)N(CC2CCC2)CC[C@]314 [NALBUPHINE]
Not Active: IC50 [1] | IC50 [2] | IC50 [3] | IC50 [4] | IC50 [5] | IC50 [6] | IC50 [7]

Clc1ccc(COC(Cn2ccnc2)c2ccc(Cl)cc2Cl)c(Cl)c1 (stereo unspecified) [MICONAZOLE]
Not Active: IC50 [1] | IC50 [2] | IC50 [3] | IC50 [4] | IC50 [5] | IC50 [7]
5.30: pKi [6]
4.96: pIC50 [6]

O=C(O)CCCCC1CCSS1 (stereo not drawn) [LIPOIC ACID, ALPHA]
Not Active: IC50 [1] | IC50 [2] | IC50 [3] | IC50 [4] | IC50 [5] | IC50 [6] | IC50 [7]

CCCCCCCCNC(C)C(O)c1ccc(SC(C)C)cc1 (stereo unspecified) [SULOCTIDIL]
Not Active: IC50 [1] | IC50 [2] | IC50 [3] | IC50 [4] | IC50 [5] | IC50 [6] | IC50 [7]

COC(=O)[C@H]1[C@H]2C[C@@H]3c4[nH]c5cc(OC)ccc5c4CCN3C[C@H]2C[C@@H](OC(=O)c2cc(OC)c(OC)c(OC)c2)[C@@H]1OC [RESERPINE]
Not Active: IC50 [1] | IC50 [2] | IC50 [3] | IC50 [4] | IC50 [5] | IC50 [6] | IC50 [7]

O=c1[nH]c(=O)n(C2CCCO2)cc1F (stereo unspecified) [TEGAFUR]
Not Active: IC50 [1] | IC50 [2] | IC50 [3] | IC50 [4] | IC50 [5] | IC50 [6] | IC50 [7]

CC(C)NC[C@H](O)COc1cccc2ccccc12 [LEVOPROPRANOLOL]
6.33: pKi [6]
6.00: pIC50 [6]
Not Active: IC50 [1] | IC50 [2] | IC50 [3] | IC50 [4] | IC50 [5] | IC50 [7]

CN1[C@@H]2CC[C@H]1C[C@@H](OC(c1ccccc1)c1ccccc1)C2 [BENZTROPINE]
6.85: pIC50 [1]
5.89: pKi [6]
Not Active: IC50 [2] | IC50 [3] | IC50 [4] | IC50 [5] | IC50 [7]
7.24: pKi [1]
5.55: pIC50 [6]

Cc1ccc(C(=O)c2ccc(CC(=O)O)n2C)cc1 [TOLMETIN]
5.67: pIC50 [5]
Not Active: IC50 [1] | IC50 [2] | IC50 [3] | IC50 [4] | IC50 [6] | IC50 [7]

C[S+]([O-])c1ccc(-c2nc(-c3ccncc3)c(-c3ccc(F)cc3)[nH]2)cc1 (stereo unspecified) [SB-203580]
Not Active: IC50 [1] | IC50 [2] | IC50 [3] | IC50 [4] | IC50 [5] | IC50 [6] | IC50 [7]

CN1CCN(C2=Nc3cc(Cl)ccc3Nc3ccccc32)CC1 [CLOZAPINE]
Not Active: IC50 [2] | IC50 [3] | IC50 [4] | IC50 [5] | IC50 [7]

C[C@]12C=CC(=O)C=C1CC[C@@H]1[C@@H]2C(=O)C[C@@]2(C)[C@H]1CC[C@]2(O)C(=O)CO [PREDNISONE]
Not Active: IC50 [1] | IC50 [2] | IC50 [3] | IC50 [4] | IC50 [5] | IC50 [6] | IC50 [7]

CC(C)NC[C@@H](O)COc1cccc2ccccc12 [DEXPROPRANOLOL]
Not Active: IC50 [1] | IC50 [2] | IC50 [3] | IC50 [4] | IC50 [5] | IC50 [6] | IC50 [7]

CN1CCN(CCCN2c3ccccc3Sc3ccc(C(F)(F)F)cc32)CC1 [TRIFLUOPERAZINE]
Not Active: IC50 [1] | IC50 [2] | IC50 [3] | IC50 [4] | IC50 [5] | IC50 [6] | IC50 [7]

O=C(O)COc1ccc(C(=O)c2cccs2)c(Cl)c1Cl
5.49: pIC50 [5]
Not Active: IC50 [1] | IC50 [2] | IC50 [3] | IC50 [4] | IC50 [6] | IC50 [7]

C[N+](C)(C)CCOC(=O)CCC(=O)OCC[N+](C)(C)C.[Cl-].[Cl-] [SUCCINYLCHOLINE CHLORIDE]
Not Active: IC50 [1] | IC50 [2] | IC50 [3] | IC50 [4] | IC50 [5] | IC50 [6] | IC50 [7]

TRANSPLATIN
Not Active: IC50 [1] | Ki [1] | IC50 [2] | Ki [2] | IC50 [3] | Ki [3] | IC50 [4] | Ki [4] | IC50 [5] | Ki [5] | IC50 [6] | Ki [6] | IC50 [7] | Ki [7]

C[C@@](Cc1ccc(O)c(O)c1)(NN)C(=O)O.O [CARBIDOPA]
Not Active: IC50 [1] | IC50 [2] | IC50 [3] | IC50 [4] | IC50 [5] | IC50 [6] | IC50 [7]

ZIRCONIUM(IV) CHLORIDE
Not Active: IC50 [1] | Ki [1] | IC50 [2] | Ki [2] | IC50 [3] | Ki [3] | IC50 [4] | Ki [4] | IC50 [5] | Ki [5] | IC50 [6] | Ki [6] | IC50 [7] | Ki [7]

CN(C)C(=O)C(CCN1CCC(O)(c2ccc(Cl)cc2)CC1)(c1ccccc1)c1ccccc1 [LOPERAMIDE]
5.60: pKi [1]
Not Active: IC50 [2] | IC50 [3] | IC50 [4] | IC50 [5] | IC50 [6] | IC50 [7]
5.21: pIC50 [1]

O=C(O)c1ccccc1O [SALICYLIC ACID]
Not Active: IC50 [1] | IC50 [2] | IC50 [3] | IC50 [4] | IC50 [5] | IC50 [6] | IC50 [7]
